Assay results from US12227500B2, “Substituted pyrrolo[2,3-b]pyridines for suppressing toxic endoplasmic reticulum stress” (THE TRUSTEES OF COLUMBIA UNIVERSITY IN THE CITY OF NEW YORK, priority 2018, dated 2025).
Where two headings read alike, the source gives them in different places.

Key:
Assay in all cases: Radiolabeled ATP kinase assay, panel of 60 kinases (Table S5)
Type in all cases: biochemical
[1] = target: T1, panel of 60 human kinases (Homo sapiens, UniProt P53778); details: P38g; 0.1 μM; 10 μM ATP; read-out: % Enzyme Activity (relative to DSMO controls)
T1 construct: purchased Reaction Biology Corp
T1 sequence (P53778 1-367): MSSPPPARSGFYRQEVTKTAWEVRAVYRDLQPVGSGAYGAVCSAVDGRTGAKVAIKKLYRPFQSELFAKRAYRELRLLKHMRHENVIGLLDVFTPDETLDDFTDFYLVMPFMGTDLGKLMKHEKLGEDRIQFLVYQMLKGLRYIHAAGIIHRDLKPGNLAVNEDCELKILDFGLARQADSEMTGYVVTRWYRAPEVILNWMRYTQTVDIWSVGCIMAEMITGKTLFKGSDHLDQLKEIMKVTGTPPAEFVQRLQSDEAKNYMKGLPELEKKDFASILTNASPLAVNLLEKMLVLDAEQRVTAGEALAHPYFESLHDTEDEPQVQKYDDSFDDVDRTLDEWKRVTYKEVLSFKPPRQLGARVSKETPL
Procedure: (§1) To better understand the biologically relevant targets of compound 1 and its analogs, a second round of cell-free kinase assays was performed. In this expanded assay, we selected ten analogs ranging from moderately to very strongly protective in the CPA assay. These analogs were evaluated for their ability to inhibit a selection of 60 kinases at 0.1 μM and 0.5 μM. […] RNAseq data were used to confirm the expression of each kinase in ES MNs (see Example 12).
(§2) RNAseq data were used to confirm the expression of each kinase in ES motor neurons (see Example 12).

[2] = target: T2, panel of 60 human kinases (Homo sapiens, UniProt Q13164); details: 0.1 μM, 10 μM ATP, read-out: % Enzyme Activity (relative to DSMO controls)
T2 construct: purchased Reaction Biology Corp
T2 sequence (Q13164 whole entry): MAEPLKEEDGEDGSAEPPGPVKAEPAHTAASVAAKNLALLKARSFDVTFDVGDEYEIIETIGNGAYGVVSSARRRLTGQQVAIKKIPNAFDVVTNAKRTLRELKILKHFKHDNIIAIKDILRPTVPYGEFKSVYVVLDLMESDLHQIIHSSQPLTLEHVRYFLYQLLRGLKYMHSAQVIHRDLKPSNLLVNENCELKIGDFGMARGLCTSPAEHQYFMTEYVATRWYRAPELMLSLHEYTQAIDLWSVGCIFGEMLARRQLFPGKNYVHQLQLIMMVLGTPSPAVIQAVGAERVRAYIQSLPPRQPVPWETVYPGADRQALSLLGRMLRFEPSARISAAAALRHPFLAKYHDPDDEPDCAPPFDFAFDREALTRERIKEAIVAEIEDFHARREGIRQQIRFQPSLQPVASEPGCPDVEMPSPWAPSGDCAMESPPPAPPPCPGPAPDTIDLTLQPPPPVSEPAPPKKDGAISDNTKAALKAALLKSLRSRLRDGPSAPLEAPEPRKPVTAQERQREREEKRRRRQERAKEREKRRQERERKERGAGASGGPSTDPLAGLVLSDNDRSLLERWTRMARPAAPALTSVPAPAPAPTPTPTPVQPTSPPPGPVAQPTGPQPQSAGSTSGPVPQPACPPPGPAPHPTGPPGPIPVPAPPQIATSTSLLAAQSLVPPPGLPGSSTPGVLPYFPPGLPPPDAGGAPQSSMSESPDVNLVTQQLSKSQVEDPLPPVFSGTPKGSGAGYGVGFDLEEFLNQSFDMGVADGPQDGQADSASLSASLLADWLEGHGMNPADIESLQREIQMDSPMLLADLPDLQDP
Procedure: as §1, §2

[3] = target: T3, panel of 60 human kinases (Homo sapiens, UniProt Q12851); details: GCK/MAP4K1; 0.1 μM; 10 μM ATP; read-out: % Enzyme Activity (relative to DSMO controls)
T3 construct: purchased Reaction Biology Corp
T3 sequence (Q12851 1-820): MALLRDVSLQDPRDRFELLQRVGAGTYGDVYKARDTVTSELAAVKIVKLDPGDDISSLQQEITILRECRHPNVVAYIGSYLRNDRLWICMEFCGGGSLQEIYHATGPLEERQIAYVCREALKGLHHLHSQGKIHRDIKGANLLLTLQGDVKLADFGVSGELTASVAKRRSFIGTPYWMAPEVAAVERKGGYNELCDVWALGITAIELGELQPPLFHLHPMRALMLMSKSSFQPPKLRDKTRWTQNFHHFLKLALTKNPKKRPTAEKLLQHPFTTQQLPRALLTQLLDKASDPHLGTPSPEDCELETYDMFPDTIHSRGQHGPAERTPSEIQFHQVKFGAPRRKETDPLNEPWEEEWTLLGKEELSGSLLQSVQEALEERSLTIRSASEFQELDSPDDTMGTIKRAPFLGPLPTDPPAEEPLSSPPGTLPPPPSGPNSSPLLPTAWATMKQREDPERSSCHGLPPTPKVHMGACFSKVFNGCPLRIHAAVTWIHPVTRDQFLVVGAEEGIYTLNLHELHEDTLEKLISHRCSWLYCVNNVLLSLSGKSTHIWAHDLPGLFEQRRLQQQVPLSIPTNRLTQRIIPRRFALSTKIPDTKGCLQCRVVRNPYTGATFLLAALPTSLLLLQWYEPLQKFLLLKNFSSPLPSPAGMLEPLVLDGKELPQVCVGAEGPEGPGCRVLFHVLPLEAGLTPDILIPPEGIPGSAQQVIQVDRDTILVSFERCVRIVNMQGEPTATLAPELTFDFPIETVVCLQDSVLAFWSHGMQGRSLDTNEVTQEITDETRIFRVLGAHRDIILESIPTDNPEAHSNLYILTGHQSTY
Procedure: as §1, §2

[4] = target: T4, panel of 60 human kinases (Homo sapiens, UniProt O94806); details: PKCnu/PRKD3; 0.1 μM; 10 μM ATP; read-out: % Enzyme Activity (relative to DSMO controls)
T4 construct: purchased Reaction Biology Corp
T4 sequence (O94806 1-890): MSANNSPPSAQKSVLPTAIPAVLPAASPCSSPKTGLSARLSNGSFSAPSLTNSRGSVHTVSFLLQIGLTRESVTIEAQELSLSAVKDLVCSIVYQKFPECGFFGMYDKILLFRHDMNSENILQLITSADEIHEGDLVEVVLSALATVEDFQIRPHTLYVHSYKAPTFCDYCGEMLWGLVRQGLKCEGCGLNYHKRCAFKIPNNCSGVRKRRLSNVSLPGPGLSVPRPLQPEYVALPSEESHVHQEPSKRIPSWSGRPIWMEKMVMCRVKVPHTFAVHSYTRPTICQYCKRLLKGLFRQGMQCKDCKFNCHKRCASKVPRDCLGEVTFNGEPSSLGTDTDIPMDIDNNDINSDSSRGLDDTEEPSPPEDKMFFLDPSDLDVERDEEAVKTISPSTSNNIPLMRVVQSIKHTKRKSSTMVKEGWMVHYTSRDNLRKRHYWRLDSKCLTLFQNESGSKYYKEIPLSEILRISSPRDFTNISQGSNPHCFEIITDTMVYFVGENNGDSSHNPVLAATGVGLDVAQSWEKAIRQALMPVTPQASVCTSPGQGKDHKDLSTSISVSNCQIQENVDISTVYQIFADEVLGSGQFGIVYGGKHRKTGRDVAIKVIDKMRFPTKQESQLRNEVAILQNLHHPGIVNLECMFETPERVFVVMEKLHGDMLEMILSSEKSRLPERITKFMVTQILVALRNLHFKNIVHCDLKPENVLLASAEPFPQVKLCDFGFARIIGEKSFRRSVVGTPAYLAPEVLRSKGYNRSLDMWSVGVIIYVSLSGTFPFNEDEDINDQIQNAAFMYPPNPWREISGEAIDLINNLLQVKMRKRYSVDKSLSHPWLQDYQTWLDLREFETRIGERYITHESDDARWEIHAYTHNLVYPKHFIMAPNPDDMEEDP
Procedure: as §1, §2

[5] = target: T5, panel of 60 human kinases (Homo sapiens, UniProt P08581); details: c-MET; 0.1 μM; 10 μM ATP; read-out: % Enzyme Activity (relative to DSMO controls)
T5 construct: purchased Reaction Biology Corp
T5 sequence (P08581 25-1390): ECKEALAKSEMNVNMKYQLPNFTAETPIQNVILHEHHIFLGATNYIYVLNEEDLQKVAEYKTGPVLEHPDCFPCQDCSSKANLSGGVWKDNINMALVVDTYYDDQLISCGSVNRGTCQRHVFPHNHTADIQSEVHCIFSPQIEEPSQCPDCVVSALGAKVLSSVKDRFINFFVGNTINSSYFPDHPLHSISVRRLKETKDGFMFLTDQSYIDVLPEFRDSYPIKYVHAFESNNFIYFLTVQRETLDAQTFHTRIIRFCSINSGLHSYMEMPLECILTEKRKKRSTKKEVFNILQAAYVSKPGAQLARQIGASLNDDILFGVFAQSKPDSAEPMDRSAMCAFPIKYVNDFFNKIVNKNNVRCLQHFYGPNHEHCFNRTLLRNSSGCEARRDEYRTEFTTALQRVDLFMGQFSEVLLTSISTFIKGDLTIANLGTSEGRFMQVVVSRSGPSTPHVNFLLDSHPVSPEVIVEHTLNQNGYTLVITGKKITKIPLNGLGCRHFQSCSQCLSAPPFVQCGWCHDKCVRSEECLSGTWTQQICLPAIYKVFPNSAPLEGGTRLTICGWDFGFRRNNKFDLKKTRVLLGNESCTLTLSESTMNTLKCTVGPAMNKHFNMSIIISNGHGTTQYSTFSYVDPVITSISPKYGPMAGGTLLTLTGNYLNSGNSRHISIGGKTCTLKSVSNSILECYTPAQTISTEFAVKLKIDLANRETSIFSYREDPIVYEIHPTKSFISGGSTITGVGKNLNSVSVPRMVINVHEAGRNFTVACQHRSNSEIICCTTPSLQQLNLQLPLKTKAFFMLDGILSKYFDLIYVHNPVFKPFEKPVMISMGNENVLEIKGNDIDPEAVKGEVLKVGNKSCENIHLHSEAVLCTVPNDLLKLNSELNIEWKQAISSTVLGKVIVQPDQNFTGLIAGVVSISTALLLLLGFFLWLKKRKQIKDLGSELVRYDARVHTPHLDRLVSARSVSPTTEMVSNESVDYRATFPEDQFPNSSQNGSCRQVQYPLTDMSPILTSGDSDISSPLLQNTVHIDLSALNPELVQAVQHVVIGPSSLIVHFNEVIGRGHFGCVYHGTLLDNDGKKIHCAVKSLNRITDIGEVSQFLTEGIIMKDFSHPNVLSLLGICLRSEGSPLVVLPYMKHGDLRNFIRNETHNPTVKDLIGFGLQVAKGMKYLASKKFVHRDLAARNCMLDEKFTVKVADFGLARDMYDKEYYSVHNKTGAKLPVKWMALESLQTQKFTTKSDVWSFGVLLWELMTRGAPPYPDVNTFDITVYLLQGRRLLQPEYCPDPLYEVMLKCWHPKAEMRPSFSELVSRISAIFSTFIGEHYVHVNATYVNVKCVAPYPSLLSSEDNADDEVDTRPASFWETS
Procedure: as §1, §2

[6] = target: T6, panel of 60 human kinases (Homo sapiens, UniProt Q00534); details: 0.1 μM, 10 μM ATP, read-out: % Enzyme Activity (relative to DSMO controls)
T6 construct: purchased Reaction Biology Corp
T6 sequence (Q00534 whole entry): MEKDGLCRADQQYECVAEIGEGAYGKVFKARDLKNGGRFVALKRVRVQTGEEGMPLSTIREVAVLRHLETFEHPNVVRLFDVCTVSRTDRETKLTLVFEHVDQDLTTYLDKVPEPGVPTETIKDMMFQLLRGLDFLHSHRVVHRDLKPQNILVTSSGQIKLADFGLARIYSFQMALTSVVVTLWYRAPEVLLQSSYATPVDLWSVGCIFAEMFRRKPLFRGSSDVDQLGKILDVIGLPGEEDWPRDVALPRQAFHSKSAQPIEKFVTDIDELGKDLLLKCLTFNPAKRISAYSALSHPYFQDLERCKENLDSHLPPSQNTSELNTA
Procedure: as §1, §2

[7] = target: T7, panel of 60 human kinases (Homo sapiens, UniProt O95819); details: HGK/MAP4K4; 0.1 μM; 10 μM ATP; read-out: % Enzyme Activity (relative to DSMO controls)
T7 construct: purchased Reaction Biology Corp
T7 sequence (O95819 whole entry): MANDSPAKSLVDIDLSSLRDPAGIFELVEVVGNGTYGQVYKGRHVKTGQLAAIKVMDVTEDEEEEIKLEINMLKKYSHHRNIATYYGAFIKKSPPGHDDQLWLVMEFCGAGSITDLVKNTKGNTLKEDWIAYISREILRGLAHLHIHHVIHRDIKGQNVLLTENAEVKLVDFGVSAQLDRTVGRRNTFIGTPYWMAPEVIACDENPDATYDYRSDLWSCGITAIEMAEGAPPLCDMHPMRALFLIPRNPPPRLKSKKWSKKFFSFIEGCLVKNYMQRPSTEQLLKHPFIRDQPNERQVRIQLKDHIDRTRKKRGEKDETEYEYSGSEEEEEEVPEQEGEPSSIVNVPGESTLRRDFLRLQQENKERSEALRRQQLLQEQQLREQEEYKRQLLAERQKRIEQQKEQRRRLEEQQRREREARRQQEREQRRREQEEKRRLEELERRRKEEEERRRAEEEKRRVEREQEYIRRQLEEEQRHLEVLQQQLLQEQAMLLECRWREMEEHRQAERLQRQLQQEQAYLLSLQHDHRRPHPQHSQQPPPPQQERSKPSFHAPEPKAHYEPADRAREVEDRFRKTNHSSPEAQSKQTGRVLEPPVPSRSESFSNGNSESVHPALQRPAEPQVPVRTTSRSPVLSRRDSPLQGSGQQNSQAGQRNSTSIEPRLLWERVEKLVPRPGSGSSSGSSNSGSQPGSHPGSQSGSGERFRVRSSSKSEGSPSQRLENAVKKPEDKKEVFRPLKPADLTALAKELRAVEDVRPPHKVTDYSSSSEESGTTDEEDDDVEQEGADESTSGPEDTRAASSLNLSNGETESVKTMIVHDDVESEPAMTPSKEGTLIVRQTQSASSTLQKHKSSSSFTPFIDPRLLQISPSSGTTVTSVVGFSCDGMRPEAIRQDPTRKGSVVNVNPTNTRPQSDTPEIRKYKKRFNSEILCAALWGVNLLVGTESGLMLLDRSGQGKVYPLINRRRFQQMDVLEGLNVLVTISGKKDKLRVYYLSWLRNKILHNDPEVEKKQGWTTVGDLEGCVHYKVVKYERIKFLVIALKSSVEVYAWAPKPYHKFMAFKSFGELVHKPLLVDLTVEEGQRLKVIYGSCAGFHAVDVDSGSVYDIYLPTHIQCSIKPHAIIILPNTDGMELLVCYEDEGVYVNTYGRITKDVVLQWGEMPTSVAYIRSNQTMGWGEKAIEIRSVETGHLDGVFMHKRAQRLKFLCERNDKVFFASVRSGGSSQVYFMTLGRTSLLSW
Procedure: as §1, §2

SMILES | remaining activity at 0.1 µM [1] [%] | remaining activity at 0.1 µM ([2]; ERK5/MAPK7 (CD)) [%] | remaining activity at 0.1 µM ([2]; ERK5/MAPK7) [%] | remaining activity at 0.1 µM [3] [%] | remaining activity at 0.1 µM [4] [%] | remaining activity at 0.1 µM [5] [%] | remaining activity at 0.1 µM ([6]; CDK6/cyclin D1) [%] | remaining activity at 0.1 µM ([6]; CDK6/cyclin D3) [%] | remaining activity at 0.1 µM [7] [%]
Cc1nn(C)c(C)c1-c1c[nH]c2ncc(-c3ccc(CN4CCN(C)CC4)cc3)cc12 [Compound 7ai, 5-(4-((4-Methylpiperazin-1-yl)methyl)phenyl)-3-(1,3,5-trimethyl-1H-pyrazol-4-yl)-1H-pyrrolo[2,3-b]pyridine] | 106 | 86 | 101 | 53.8 | 19.2 | 77.4 | 47.9 | 76 | 9.15
COc1ccccc1-c1c[nH]c2ncc(-c3ccc(CN4CCN(C)CC4)cc3)cc12 [Compound 7at, 3-(2-Methoxyphenyl)-5-(4-((4-methylpiperazin-1-yl)methyl)phenyl)-1H-pyrrolo[2,3-b]pyridine] | 103 | 92.7 | 108 | 12.3 | 50.2 | 86.8 | 7.23 | 46 | 9.52
CN1CCN(Cc2ccc(-c3cnc4[nH]cc(-c5ccc6[nH]ccc6c5)c4c3)cc2)CC1 [Compound 1, 3-(1H-Indol-5-yl)-5-(4-((4-methylpiperazin-1-yl)methyl)phenyl)-1H-pyrrolo[2,3-b]pyridine, reference compound] | 99.3 | 87.5 | 109 | 27.5 | 16.1 | 55.9 | 47.2 | 66.1 | 1.96
CN1CCN(Cc2ccc(-c3cnc4[nH]cc(-c5cnn(Cc6ccccc6)c5)c4c3)cc2)CC1 [Compound 7ah, 3-(1-Benzyl-1H-pyrazol-4-yl)-5-(4-((4-methylpiperazin-1-yl)methyl)phenyl)-1H-pyrrolo[2,3-b]pyridine] | 106 | 52.1 | 105 | 10.1 | 7.09 | 86.6 | 28.6 | 33.2 | 5.18
CN1CCN(Cc2ccc(-c3cnc4[nH]cc(-c5ccc6c(c5)OCCO6)c4c3)cc2)CC1 [Compound 7d, 3-(2,3-Dihydrobenzo[b][1,4]dioxin-6-yl)-5-(4-((4-methylpiperazin-1-yl)methyl)phenyl)-1H-pyrrolo[2,3-b]pyridine] | 108 | 87.5 | 96.8 | 13.1 | 6.42 | 110 | 15.1 | 52.3 | 2.05
CN1CCN(Cc2ccc(-c3cnc4[nH]cc(-c5ccoc5)c4c3)cc2)CC1 [Compound 7w, 3-(Furan-3-yl)-5-(4-((4-methylpiperazin-1-yl)methyl)phenyl)-1H-pyrrolo[2,3-b]pyridine] | 116 | 96.3 | 108 | 33.6 | 32.8 | 96.6 | 58.5 | 68.4 | 2.85
CN1CCN(Cc2ccc(-c3cnc4[nH]cc(-c5cccc(Cl)c5)c4c3)cc2)CC1 [Compound 7ad, 3-(3-Chlorophenyl)-5-(4-((4-methylpiperazin-1-yl)methyl)phenyl)-1H-pyrrolo[2,3-b]pyridine] | 108 | 93.9 | 109 | 8.09 | 17.5 | 86.2 | 45.8 | 58.8 | 1.36
CN1CCN(Cc2ccc(-c3cnc4[nH]cc(-c5ccncc5)c4c3)cc2)CC1 [Compound 7n, 5-(4-((4-Methylpiperazin-1-yl)methyl)phenyl)-3-(pyridin-4-yl)-1H-pyrrolo[2,3-b]pyridine] | 114 | 98.9 | 90.6 | 59.6 | 42.3 | 102 | 23.4 | 51.8 | 35
CN1CCN(Cc2ccc(-c3cnc4[nH]cc(-c5ccccc5Cl)c4c3)cc2)CC1 [Compound 7as, 3-(2-Chlorophenyl)-5-(4-((4-methylpiperazin-1-yl)methyl)phenyl)-1H-pyrrolo[2,3-b]pyridine] | 109 | 51.2 | 107 | 8.85 | 18.8 | 84.1 | 15.6 | 36.1 | -0.5
